# Results: PMC11472388 (ACS Medicinal Chemistry Letters, 2024)
# Several values for one entry are separate records, joined by “and”; a condition that tells them apart may be missing. Identical values can stand only once. Like-named read-outs stand apart in the source and are kept apart here. Where a SMILES comes first, the peptide text is derived from it. Bridges are numbered along the chain shown (N, C = ends). [ ]: non-standard residue; d: D form. The star is where a group is joined. βGlc = OC[C@H]1O[C@@H](*)[C@H](O)[C@@H](O)[C@@H]1O; 1Nal = N[C@@H](Cc1cccc2ccccc12)C(=O)O
# How the values were obtained:
# [1] = target: T1, kappa opioid receptor (KOR) (Homo sapiens, UniProt P41145); assay: Opioid receptor binding (NIMH PDSP), KOR
# T1 construct: NIMH Psychoactive Drug Screening Program (PDSP)
# T1 sequence (P41145 whole entry): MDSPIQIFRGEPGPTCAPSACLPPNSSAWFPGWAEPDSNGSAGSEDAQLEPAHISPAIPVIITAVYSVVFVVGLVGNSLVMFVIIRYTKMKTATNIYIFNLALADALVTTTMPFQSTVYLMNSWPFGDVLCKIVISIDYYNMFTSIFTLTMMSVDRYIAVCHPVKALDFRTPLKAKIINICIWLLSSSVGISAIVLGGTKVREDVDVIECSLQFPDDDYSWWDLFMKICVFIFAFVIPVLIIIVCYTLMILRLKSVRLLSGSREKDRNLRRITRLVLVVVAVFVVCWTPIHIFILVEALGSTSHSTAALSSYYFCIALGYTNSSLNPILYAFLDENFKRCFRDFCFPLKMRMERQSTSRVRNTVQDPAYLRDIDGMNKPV
# Excerpt: (§1) Ki determinations at the 3 canonical opioid receptors, MOR, DOR. and KOR. were generously performed by the NIMH Psychoactive Drug Screening Program (PDSP), directed by Bryan L. Roth at the University of North Carolina at Chapel Hill and Project Officer Jamie Driscoll at NIMH, Bethesda. MD.
# [2] = target: T2, mu opioid receptor (MOR) (Homo sapiens, UniProt P35372); assay: Opioid receptor binding (NIMH PDSP), MOR
# T2 construct: NIMH Psychoactive Drug Screening Program (PDSP)
# T2 sequence (P35372 whole entry): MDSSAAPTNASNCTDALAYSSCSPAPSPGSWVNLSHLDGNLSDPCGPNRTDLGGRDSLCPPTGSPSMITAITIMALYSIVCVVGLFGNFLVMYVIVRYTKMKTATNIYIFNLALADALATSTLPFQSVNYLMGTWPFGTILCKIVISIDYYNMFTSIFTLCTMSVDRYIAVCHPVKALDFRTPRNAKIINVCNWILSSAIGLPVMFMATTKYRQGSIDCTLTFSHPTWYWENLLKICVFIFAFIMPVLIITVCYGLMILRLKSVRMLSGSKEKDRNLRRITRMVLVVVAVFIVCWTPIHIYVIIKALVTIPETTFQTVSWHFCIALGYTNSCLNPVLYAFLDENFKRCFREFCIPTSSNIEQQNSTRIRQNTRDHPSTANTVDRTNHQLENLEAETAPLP
# Excerpt: as §1
# [3] = test system: male and female CD-1 mice; assay: Tail flick (TF) antinociception; format: in vivo; conditions: for ED50: Mus musculus, sc
# Excerpt: (§2) using the microdialysis probe recovery rate. All data are presented as mean ± SEM.
# For the dialysate, the mean
# Animals: Male and female CD-1 and DBA mice, 21–29 g at testing, were obtained from Charles River (Wilmington, MA) and housed in a 12-h light/dark cycle. All experiments were approved by the Tulane Institutional Animal Care and Use Committee and conducted according to the NIH Guide for the Care and Use of Laboratory Animals. All efforts were made to minimize animal suffering and to reduce the number of animals used.
# Tail Flick (TF): CD1 mice were used for this test. The latency to withdraw the tail from a heat source was automatically measured (IITC, Woodland Hills, CA). […]
# with a cutoff time of 9 s to prevent tissue damage. Percent Maximum Possible Effect (%MPE) was determined as [(latency-baseline latency)/(9-baseline latency)]*100. […]
# (§3) calculated and used as the peak response for determining ED50’s. Initial tests, based on previous studies with ZH853, were 3h in duration.
# (§4) Additional subgroups (n = 4-5) were therefore tested for 5h. […] For the time course (Figure 3) […]
# (§5) animals were used. Duration of antinociception was assessed using both the area under the curve (AUC) and duration of antinociception, calculated as the time from the first to the last time point greater than or equal to 50% MPE.
# (§6) Hot Plate (HP) Test: This test reflects a supraspinally organized complex response, 6 and was used to assess the CNS activation of antinociception by peripherally (s.c.) administered […]
# (§7) to reduce test compound requirements. The HP apparatus (IITC, Woodland Hills, CA) was set to 55.5°C, a temperature that elicited a response after 7-9 sec. Three baseline HP latencies to rapidly lift, lick, or shake the hind paws were taken prior to drug injection. Mice were removed from the HP after a maximum of 30 sec. Mice were injected with several analogs (0–5.6 mg/kg s.c.) and tested from 30–300 min after injection.
# (%MPE) as described for TF.
# [4] = test system: male and female DBA mice; assay: animal or person; format: in vivo; conditions: for ED50: Mus musculus, sc
# Procedure: as §3, §4, §5, §6, §7
# (%MPE) as described for TF. […]
# each of those respective times was therefore calculated and used as the peak response for determining ED50’s. These values were used to calculate area under the curve (AUC). The duration of antinociception greater than 50% MPE was calculated as with TF.
# Figure S3. Microdialysis and Pharmacokinetics Experiment Scheme.
# Scheme depicts catheterization and microdialysis of the rat striatum. […]
# endomorphin-1 analog (10 mg/kg; i.v.) ZH853 = ZH853•HCl (10 mg/kg; i.v.); aCSF = artificial cerebrospinal fluid. Created with BioRender.com (Agreement number MH26RXD2YP).
# (1 picture or pasted object on this page, not shown here)
# [5] = In vivo microdialysis and plasma pharmacokinetics (BBB penetration); set-up: species or system Sprague-Dawley rats; conditions: rat, 10 mg/kg i.v.; for AUC Brain (estimated CSF, brain dialysate): striatal dialysate 0-60 min
# Procedure: Following intravenous bolus injection, AUC, Cmax, half-life, and Tmax were determined in plasma and CSF dialysate, and the CSF/plasma ratios for AUC of the analogs were compared (Table 1).
# Blood Brain Barrier Penetration and Pharmacokinetics
# Animals: Male, Sprague-Dawley rats (225-325, n = 3/group; Envigo RMC Inc., Indianapolis, IN were used for in vivo microdialysis and pharmacokinetic experiments. Rats were co-housed in a temperature/humidity-controlled room on a 12-h reversed light/dark cycle. Food and water were available ad libitum. Animal studies were approved by The University of Arizona Institutional Animal Care and Use Committee, in accordance with NIH’s Care and Use of Laboratory Animals […]
# Carotid Artery Catheterization and Microdialysis Surgery: Both procedures were performed in the same anesthetic event in accordance with our previous studies, with one exception, the left carotid artery was catheterized in each animal.2
# In Vivo Microdialysis and Plasma Sampling: Blood-brain-barrier penetration and […]
# same time to minimize injection site variations and individual differences between the animals. […]
# following changes (Figure S3). 2, 4 The microdialysis probe (FZ-8-04; Amuza, San Diego, CA) was inserted into the striatum and perfused with aCSF (15 mM Tris HCl, 10 mM Tris base, 126 mM NaCl, 2.5 KCl, 1.2 mM NaH 2PO4, 2mM Na 2SO4, and adjusted pH to 7.4) at a rate of 0.5 µL/minute using one channel of a dual syringe pump (Fusion 101A Syringe Pump; Chemyx, Stafford, TX).
# Boise, ID) and injected via the lateral tail vein. Brain dialysate samples used to estimate CSF were collected over 10 minutes, where t = 0 corresponds to the injection: t = -10, 0, 10, 20, 30, 40, 50, and 60 minutes. Blood was sampled to correspond with the median timepoint of the dialysate fraction, where t = 0 corresponds to the injection: t = -5, 0, 1, 5, 15, 25, 35, 45, and 55 […]
# minutes. To separate plasma from whole blood, each sample was collected in ethylenediamine tetraacetic acid capillary tubes (CT-CB300-K2EDTA; Sarstedt, Nümbrecht, Germany), inverted repeatedly for 30 seconds, and centrifuged for 10 minutes at 2,000 x g in a refrigerated centrifuge (Galaxy Mini Centrifuge; VWR, Radnor, PA).
# Brain dialysate (5 μL) and plasma (5 μL) were mixed with 5 μL and 50 μL of preservation solution […]
# Enkephalin), respectively, and then vortexed for 10 seconds. 90 μL of cold acetone and deionized water (75:25, v/v) was added to precipitate dialysate and plasma proteins. After vortexing for 30 seconds, samples were centrifuged at 13,000 rpm for 15 minutes at 4 °C. The supernatant was evaporated using a Savant Speedvac concentrator. Dialysate and plasma samples were reconstituted in a 20 μL and 200 μL diluent (2% acetonitrile and 0.1% formic acid in deionized water), respectively. Samples were injected into the ThermoFisher UHPLC-MS/MS TSQ system.
# Chromatographic separation was achieved on an ACQUITY UPLC HSS T3 C18 Column (100 Å, 1.8 µm, 2.1 X 100 mm) and VanGuard pre-column (HSS T3 1.8 μm, 2.1 X 5 mm) with the temperature set at 20 ℃. A water-acetonitrile gradient with a 0.3 mL/minute flow rate was used.
# The mobile phases used were A: 0.1% v/v formic acid in deionized water and B: 0.1% v/v formic acid in acetonitrile. An injection volume of 8 µL was used. Detection was achieved using a Thermo Fisher TSQ Fortis Plus mass spectrometry instrument with an H-ESI ion source. The instrument was operated in a positive ion mode. The MRM mode was used for quantification using target […]
# protonated ZH853 (MW 809.92 gmol-1). Concentrations were calculated using the response factor-concentration plot. Pharmacokinetic parameters, including the area under the curve (AUC), maximum plasma concentration (Cmax), the time to reach Cmax (Tmax), and half-life (t1/2), were […]
# as §2
# [6] = target: T3, delta opioid receptor (DOR) (Homo sapiens, UniProt P41143); assay: Opioid receptor binding (NIMH PDSP), DOR
# T3 construct: NIMH Psychoactive Drug Screening Program (PDSP)
# T3 sequence (P41143 whole entry): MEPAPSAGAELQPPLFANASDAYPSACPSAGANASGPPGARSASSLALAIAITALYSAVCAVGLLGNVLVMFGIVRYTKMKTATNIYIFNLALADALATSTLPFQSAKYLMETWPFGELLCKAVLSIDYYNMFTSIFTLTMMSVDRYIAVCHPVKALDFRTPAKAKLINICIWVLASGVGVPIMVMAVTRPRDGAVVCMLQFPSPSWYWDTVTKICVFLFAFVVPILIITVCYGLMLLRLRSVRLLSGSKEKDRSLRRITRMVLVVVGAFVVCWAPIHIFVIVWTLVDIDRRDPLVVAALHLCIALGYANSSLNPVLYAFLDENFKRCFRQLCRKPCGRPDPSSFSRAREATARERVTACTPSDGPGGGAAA
# Excerpt: as §1
# [7] = target: T4, MOR (Homo sapiens, UniProt P35372); assay: Gi signaling (inhibition of cAMP) in opioid-receptor-expressing HEK cells, MOR; format: cell-based
# T4 construct: host or cells: HEK cells expressing the receptor (from the earlier reading's assay name)
# T4 sequence (P35372 whole entry): as the sequence (P35372 whole entry) above
# Procedure: (§8) Opioid-receptor-specific functional activity was assessed in cyclicAMP (cAMP) assays by PDSP.
# [8] = target: T5, DOR (Homo sapiens, UniProt P41143); assay: Gi signaling (inhibition of cAMP) in opioid-receptor-expressing HEK cells, DOR; format: cell-based
# T5 construct: host or cells: HEK cells expressing the receptor (from the earlier reading's assay name)
# T5 sequence (P41143 whole entry): as the sequence (P41143 whole entry) above
# Procedure: as §8
# [9] = target: KOR (Homo sapiens, UniProt P41145); assay: cell-based; conditions: HEK cells; means and SEMs of 3–6 assays; read-out: IC50 KOR (κ), cAMP
# Chain of KOR (P41145 whole entry): as the sequence (P41145 whole entry) above
# [10] = tail flick, 10 mg/kg morphine, 1.8 mg/kg A2
# [11] = male, Sprague-Dawley, iv, brain dialysate, read-out: Tmax Brain (dialysate) (converted)
# [12] = male, Sprague-Dawley, iv, plasma, read-out: Tmax Plasma (converted)
# [13] = male, Sprague-Dawley, brain dialysate, iv, 10 mg/kg, brain dialysate, read-out: Half-life Brain (dialysate)
# [14] = male, Sprague-Dawley, plasma, iv, 10 mg/kg
# [15] = male, Sprague-Dawley, plasma, iv, 10 mg/kg, plasma 0-55 min, n=3
# [16] = male, Sprague-Dawley, plasma, iv, 10 mg/kg, plasma, read-out: Half-life Plasma
smiles,measurement,setting,value
NC(=O)[C@H](CO)NC(=O)[C@@H]1CCC(=O)NCCCC[C@@H](NC(=O)[C@@H](N)Cc2ccc(O)cc2)C(=O)N[C@@H](Cc2c[nH]c3ccccc23)C(=O)N[C@@H](Cc2ccccc2)C(=O)N1 [Analog A8],Ki,[1],1260 ± 145 nM
NC(=O)[C@H](CO[C@@H]1O[C@H](CO)[C@@H](O)[C@H](O)[C@H]1O)NC(=O)[C@@H]1CCC(=O)NCCCC[C@@H](NC(=O)[C@@H](N)Cc2ccc(O)cc2)C(=O)N[C@@H](Cc2cccc3ccccc23)C(=O)N[C@@H](Cc2ccccc2)C(=O)N1 [Analog A6] (H-Y[dK][1Nal]FES(βGlc)-NH2; lactam 2-5; N-terminus assumed),Shift (reduction) of MOR affinity by glycosylation,[2]; relative to unglycosylated peptides,~5 fold
CN1CC[C@]23c4c5ccc(O)c4O[C@H]2[C@@H](O)C=C[C@H]3[C@H]1C5 [morphine],ED50,"[3]; female CD-1 mice, %MPE at peak response, read-out: Tail flick ED50 Female",1.57 ± 0.35 mg/kg
same,ED50,"[3]; female CD-1 mice, read-out: Tail flick ED50 Female",4.69 ± 1.08 µmol/kg
same,ED50,"[3]; male CD-1 mice, read-out: Tail flick ED50 Male",3.74 ± 0.39 µmol/kg
same,Time of peak response,[3]; tail flick,20 to 30 min
same,Duration of antinociception,"[3]; tail flick, 5.6 mg/kg",~2 h
same,Antinociception at matched doses,[3]; [10],100 %MPE
same,Duration of antinociception at matched doses,[3]; [10],> 3 h
same,ED50,"[4]; female DBA mice, %MPE at peak response, read-out: Hot plate ED50 Female",2.33 ± 0.18 mg/kg
same,ED50,"[4]; female DBA mice, read-out: Hot plate ED50 Female",6.99 ± 0.52 µmol/kg
same,ED50,"[4]; male DBA mice, %MPE at peak response, read-out: Hot plate ED50 Male",2.82 ± 0.24 mg/kg
same,ED50,"[4]; male DBA mice, read-out: Hot plate ED50 Male",8.43 ± 0.73 µmol/kg
same,Time of peak response,[4]; hot plate,30 to 45 min
NC(=O)[C@H](CO[C@@H]1O[C@H](CO)[C@@H](O)[C@H](O)[C@H]1O)NC(=O)[C@@H]1CCC(=O)NCCCC[C@@H](NC(=O)[C@@H](N)Cc2ccc(O)cc2)C(=O)N[C@@H](Cc2c[nH]c3ccccc23)C(=O)N[C@@H](Cc2ccccc2)C(=O)N1 [Analog A1],Tmax,[5]; [11],5 min
same,Tmax,[5]; [12],1 min
same,half-life,[5]; [13],16.6 ± 7.9 min
same,Cmax,[5]; [14],15.7 ± 7.4 µM
same,AUC,[5]; [15],2.62 µM·h
same,half-life,[5]; [16],25.9 ± 5.7 min
same,"AUC of plasma, increase over ZH853",[5]; 0-55 min,~ 1.5 fold
same,"AUC of estimated CSF, increase over ZH853",[5]; 0-60 min,~ 8 fold
same,Cmax Brain (dialysate),"[5]; brain dialysate, 10 mg/kg",10.8 ± 6.5 µM and 11 ± 7 µM
same,"AUC Brain (estimated CSF, brain dialysate)","[5]; n=3, 10 mg/kg",141.0 ± 69.2 µM·min and 141 ± 69 µM·min
NC(=O)CNC(=O)[C@@H]1CCC(=O)NCCCC[C@@H](NC(=O)[C@@H](N)Cc2ccc(O)cc2)C(=O)N[C@@H](Cc2c[nH]c3ccccc23)C(=O)N[C@@H](Cc2ccccc2)C(=O)N1 [ZH853],Tmax,[5]; [11],28 min
same,Tmax,[5]; [12],2 min
same,half-life,[5]; [13],6.1 ± 0.7 min
same,Cmax,[5]; [14],16.5 ± 3 µM
same,AUC,[5]; [15],1.83 µM·h
same,half-life,[5]; [16],15.9 ± 2.3 min
same,AUC CSF/Plasma ratio,[5],0.189
same,Cmax Brain (dialysate),"[5]; brain dialysate, 10 mg/kg",1.5 ± 0.2 µM and 2 ± 0.2 µM
same,Half-life Brain (dialysate),"[5]; brain dialysate, 10 mg/kg",6 ± 0.7 min
same,AUC Plasma,"[5]; plasma 0-55 min, n=3, 10 mg/kg",110 ± 37 µM·min
same,Cmax,"[5]; plasma, 10 mg/kg",17 ± 3 µM
same,Half-life Plasma,"[5]; plasma, 10 mg/kg",16 ± 2 min
same,"AUC Brain (estimated CSF, brain dialysate)","[5]; n=3, 10 mg/kg",20.7 ± 7.9 µM·min and 21 ± 8 µM·min
same,Ki,[2],0.61 ± 0.2 nM
same,Ki MOR (μ),[2]; mean ± SEM of 3 replicate assays,subnanomolar
same,Selectivity δ/μ (binding),[2]; ratio of Ki,631
same,Selectivity κ/μ (binding),[2]; ratio of Ki,2353
same,Ki,[6],385 ± 61 nM
same,Ki,[1],1440 ± 306 nM
same,IC50,[7],0.07 ± 0.04 nM
same,Selectivity δ/μ (cAMP),[7]; ratio of IC50,5220
same,Selectivity κ/μ (cAMP),[7]; ratio of IC50,31460
same,IC50,[8],377 ± 166 nM
same,IC50,[9],2270 ± 273 nM
